The target of data set [1] is KIF18a-Microtubule Complex (Homo sapiens (Human), UniProt Q8NI77). In words: Binding kinetics to KIF18a-microtubule complex (global progress curve analysis). Particulars: for koff (off-rate from binding kinetics assay) / kon (on-rate from binding kinetics assay): global progress curve analysis; for Ki: read-out: KI (determined from binding kinetic assay koff/kon), koff/kon; for koff: read-out: koff (off-rate from binding kinetics assay). The essentials: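 kon and koff determined by global progress curve analysis, with ADP formation measured by ADP-Glo. Time- and dose-dependent progress curves were globally fitted to a Michaelis-Menten model with one-step slow-binding inhibition.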
Sequence of KIF18a-Microtubule Complex (Q8NI77 whole entry, looked up): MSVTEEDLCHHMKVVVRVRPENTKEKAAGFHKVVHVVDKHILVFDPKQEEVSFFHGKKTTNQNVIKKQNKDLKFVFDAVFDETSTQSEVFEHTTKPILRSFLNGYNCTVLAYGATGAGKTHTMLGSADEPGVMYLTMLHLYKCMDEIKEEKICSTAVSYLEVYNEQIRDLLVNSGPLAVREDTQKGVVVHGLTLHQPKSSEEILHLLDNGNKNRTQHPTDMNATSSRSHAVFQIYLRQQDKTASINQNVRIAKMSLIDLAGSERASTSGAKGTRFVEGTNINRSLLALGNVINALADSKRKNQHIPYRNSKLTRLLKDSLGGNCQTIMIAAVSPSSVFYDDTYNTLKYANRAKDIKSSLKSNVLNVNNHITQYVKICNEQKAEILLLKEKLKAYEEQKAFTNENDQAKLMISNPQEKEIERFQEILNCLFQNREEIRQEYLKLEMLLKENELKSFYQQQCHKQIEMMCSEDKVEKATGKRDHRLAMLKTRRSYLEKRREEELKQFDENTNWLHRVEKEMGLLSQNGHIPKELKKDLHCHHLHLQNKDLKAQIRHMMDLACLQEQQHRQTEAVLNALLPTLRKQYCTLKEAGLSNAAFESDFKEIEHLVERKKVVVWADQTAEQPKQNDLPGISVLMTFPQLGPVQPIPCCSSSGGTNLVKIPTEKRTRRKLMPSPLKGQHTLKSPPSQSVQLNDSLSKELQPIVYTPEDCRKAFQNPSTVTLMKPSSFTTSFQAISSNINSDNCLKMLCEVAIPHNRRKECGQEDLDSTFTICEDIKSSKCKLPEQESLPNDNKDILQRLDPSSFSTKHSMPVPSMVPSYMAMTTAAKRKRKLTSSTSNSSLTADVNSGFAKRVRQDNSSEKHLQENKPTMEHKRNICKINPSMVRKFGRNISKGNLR
Sequence of KIF18a-Microtubule Complex (Q2XVP4 whole entry partner, looked up): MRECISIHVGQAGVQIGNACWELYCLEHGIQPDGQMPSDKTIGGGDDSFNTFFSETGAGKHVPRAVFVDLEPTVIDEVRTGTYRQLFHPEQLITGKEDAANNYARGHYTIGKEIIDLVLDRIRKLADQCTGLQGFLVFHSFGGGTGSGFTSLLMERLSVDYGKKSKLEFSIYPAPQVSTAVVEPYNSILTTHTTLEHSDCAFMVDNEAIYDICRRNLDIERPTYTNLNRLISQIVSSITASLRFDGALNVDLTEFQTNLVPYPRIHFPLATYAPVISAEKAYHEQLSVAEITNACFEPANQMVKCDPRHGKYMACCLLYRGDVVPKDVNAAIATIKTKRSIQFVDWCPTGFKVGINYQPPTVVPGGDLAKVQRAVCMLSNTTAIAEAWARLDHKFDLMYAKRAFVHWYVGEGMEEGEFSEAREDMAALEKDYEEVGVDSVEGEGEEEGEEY
Sequence of KIF18a-Microtubule Complex (P02554 whole entry partner, looked up): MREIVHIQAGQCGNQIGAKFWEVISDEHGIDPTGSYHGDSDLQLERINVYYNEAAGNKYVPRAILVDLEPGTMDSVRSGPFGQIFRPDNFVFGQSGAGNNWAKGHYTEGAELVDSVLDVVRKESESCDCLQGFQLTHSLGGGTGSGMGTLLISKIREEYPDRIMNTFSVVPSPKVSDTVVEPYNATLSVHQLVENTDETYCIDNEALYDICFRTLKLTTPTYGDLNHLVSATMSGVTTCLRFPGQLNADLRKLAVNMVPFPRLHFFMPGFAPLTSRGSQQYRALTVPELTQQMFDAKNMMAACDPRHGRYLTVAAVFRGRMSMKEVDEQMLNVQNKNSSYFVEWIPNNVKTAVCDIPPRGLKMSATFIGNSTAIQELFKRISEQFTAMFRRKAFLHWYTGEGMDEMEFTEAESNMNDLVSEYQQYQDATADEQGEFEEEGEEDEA

For data set [2], the system named is JIMT-1 cells. In words: Cell viability of KIF18a-sensitive cell lines, JIMT-1 (Cell Titre-Glo, 7 days). It counts as cell-based. The method, then: (§1) Cell Viability of KIF18a-Sensitive Cell Lines
(§2) Cell lines were seeded as follows 24 hours before compound treatment: HCC15 (Korean Cell Line Bank) 600 cell/well, 95 μL of RPMI-1640 media supplemented with 100 units/mL penicillin, 100 units/mL streptomycin and 10% FBS; NIH:OVCAR-3 (ATCC), 1000 cell/well, 95 μL of RPMI-1640 media supplemented with 100 units/mL penicillin, 100 units/mL streptomycin, 0.01 mg/mL bovine insulin, and 20% FBS; JIMT-1 (Addexbio) 1000 cell/well, 95 μL of DMEM media supplemented with 100 units/mL penicillin, 100 units/mL streptomycin, and 10% FBS.
(§3) Test compounds were added to cells in a 20× dilution scheme by adding 5 μL of serially diluted compound to the plate, and the treated cells were incubated for an additional 7 days in a 37° C., 5% CO2 incubator. DMSO was used as the negative control (0% effect), and wells omitting cells were used as the positive control (100% effect). The cells were incubated for seven days, and cell viability determined via the Promega Cell Titre-Glo® Assay kit. Luminescence units were converted to ATP concentrations via an ATP standard curve (10 point, 2-fold dilution from 5 uM). % Inhibition was calculated for each well as: ([max−min]−[test−min])/[max−min]. IC50 values were calculated from concentration vs. % Inhibition data via a four-parameter variable slope model.

The subject of data set [3] is NIH:OVCAR-3 cells. In words: Cell viability of KIF18a-sensitive cell lines, NIH:OVCAR-3 (Cell Titre-Glo, 7 days). It counts as cell-based. As for the experimental part:
as §1, §2, §3

In data set [4] the target is hKIF18A (1-374) (Homo sapiens (Human), UniProt Q8NI77). In words: Inhibition of KIF18A microtubule-dependent ATPase activity (ADP-Glo). The following applies: KIF18A microtubule-dependent ATPase activity, biochemical assay. In general terms: ADP-Glo turns the ADP formed in a reaction into a luminescent signal.
Sequence of hKIF18A (1-374) (Q8NI77 whole entry, looked up): as the sequence (Q8NI77 whole entry, looked up) above
Sequence of hKIF18A (1-374) (Q2XVP4 whole entry partner, looked up): as the sequence (Q2XVP4 whole entry partner, looked up) above
Sequence of hKIF18A (1-374) (P02554 whole entry partner, looked up): as the sequence (P02554 whole entry partner, looked up) above
Data set [5] relates to HCC15 cells. In words: Cell viability of KIF18a-sensitive cell lines, HCC15 (Cell Titre-Glo, 7 days). In kind it is cell-based. As for the experimental part: as §1, §2, §3
The mark [6] stands for this setting: JIMT-1 cells, 7 days, Cell Titre-Glo, read-out: JIMT-1 IC50.
Where [7] appears, read: NIH-OVCAR3 cells, 7 days, Cell Titre-Glo, read-out: NIH-OVCAR3 IC50.
Where [8] appears, read: HCC-15 cells, 7 days, Cell Titre-Glo, read-out: HCC-15 IC50.
The mark [9] stands for this setting: Homo sapiens, 168 h, JIMT-1 cells, 7 days, Cell Titre-Glo, read-out: JIMT-1 IC50.
[10] abbreviates: Homo sapiens, OVCAR-3, 168 h, NIH-OVCAR3 cells, 7 days, Cell Titre-Glo, read-out: NIH-OVCAR3 IC50.
[11] abbreviates: HCC15, 168 h, HCC-15 cells, 7 days, Cell Titre-Glo, read-out: HCC-15 IC50.

Molecules are shown by their SMILES. Where two headings read alike, the source gives them in different places.

The IC50 is the concentration at which inhibition is half-maximal. On to `CS(=O)(=O)Nc1ccc2c(c1)C1(CCC3(CC3)CC1)CN2C(=O)c1cccc(C(O)C2CCCC2)c1` (single isomer, unassigned) [Compound 165a], for which the “koff (off-rate from binding kinetics assay)” value in data set [1] was found to be 5e-05 s⁻¹. The “kon (on-rate from binding kinetics assay)” value (shortened to “kon”) in data set [1] came to 11900 M⁻¹ s⁻¹. Besides, the “disc. t1/2 (dissociation half-life ln(2)/koff)” value in data set [1] (ln(2)/koff) amounted to 3.8 h. Also, in data set [1], the Ki worked out at 4.2 nM. The IC50 stood at 45 nM in data set [2] (setting [6]), 59 nM in data set [3] (setting [7]), 8.8 nM in data set [4] and 68 nM in data set [5] (setting [8]).

Take `CS(=O)(=O)Nc1ccc2c(c1)C1(CCC3(CC3)CC1)CN2C(=O)c1cccc(C(O)C2CCCC2)c1` (single isomer, unassigned) [Compound 165b]: the “koff (off-rate from binding kinetics assay)” value in data set [1] stood at 4.72e-05 s⁻¹. Further, the “kon” value in data set [1] was 11900 M⁻¹ s⁻¹. Further, the “disc. t1/2 (dissociation half-life ln(2)/koff)” value in data set [1] (ln(2)/koff) amounted to 4.2 h. In data set [1], the Ki was 3.9 nM. The IC50 in data set [2] (setting [6]) came out at 38 nM; in data set [3] (setting [7]), 57 nM; in data set [4], 10 nM; in data set [5] (setting [8]), 46 nM.

For the compound `CS(=O)(=O)Nc1ccc2c(c1)C1(CCC3(CC3)CC1)CN2C(=O)c1cccc([C@@H](O)CC2CCC2)c1` (single isomer, unassigned) [Compound 305a], the “koff (off-rate from binding kinetics assay)” value in data set [1] is 0.000361 s⁻¹. Further, in data set [1], the “kon” value amounted to 97200 M⁻¹ s⁻¹. The “disc. t1/2 (dissociation half-life ln(2)/koff)” value in data set [1] (ln(2)/koff) is reported as 0.56 h. Besides, the Ki in data set [1] amounted to 3.5 nM. Also, the half-inhibitory concentration (IC50) in data set [2] (setting [6]) is 52 nM; in data set [3] (setting [7]) it was 90 nM; in data set [4], 8.1 nM; in data set [5] (setting [8]), 74 nM.

Turning to `CS(=O)(=O)Nc1ccc2c(c1)C1(CCC3(CC3)CC1)CN2C(=O)c1cccc([C@H](O)CC2CCC2)c1` (single isomer, unassigned) [Compound 305b], the “koff (off-rate from binding kinetics assay)” value in data set [1] came out at 0.000389 s⁻¹. The “kon” value in data set [1] amounted to 106000 M⁻¹ s⁻¹. Also, the “disc. t1/2 (dissociation half-life ln(2)/koff)” value in data set [1] (ln(2)/koff) worked out at 0.49 h. Further, in data set [1], the Ki stood at 3.7 nM. Besides, the half-maximal inhibitory concentration (IC50) was 40 nM in data set [2] (setting [6]), 69 nM in data set [3] (setting [7]), 6.8 nM in data set [4] and 60 nM in data set [5] (setting [8]).

On to `Cc1cc(NC(=O)c2ccc(NS(=O)(=O)CCO)cc2N2CCC3(CC2)CC3)nc(N2CCC(F)(F)CC2)n1` [AMG650, 2-{6-azaspiro[2.5]octan-6-yl}-N-[2-(4,4-difluoropiperidin-1-yl)-6-methylpyrimidin-4-yl]-4-(2-hydroxyethanesulfonamido)benzamide, reference compound], for which the “dissociation t1/2” value in data set [1] (ln(2)/koff) came to 4.1 h. The IC50 in data set [2] (Homo sapiens, JIMT-1, 168 h, read-out: IC50, cell viability JIMT-1) is 130 nM; in data set [3] (Homo sapiens, OVCAR-3, 168 h, read-out: IC50, cell viability NIH: OVCAR3), 100 nM; in data set [5] (HCC15, 168 h, read-out: IC50, cell viability HCC-15), 66 nM.

The koff is the rate constant with which the complex falls apart. Take `CC(C)(C)NS(=O)(=O)c1cc(C(=O)N2CC3(CCC4(CC4)CC3)c3cc(NS(C)(=O)=O)ccc32)ccc1F` [Compound 159, N-(tert-butyl)-2-fluoro-5-(5″- (methylsulfonamido)dispiro[cyclopropane-1,1′-cyclohexane-4′,3″-indoline]-1″-carbonyl)benzenesulfonamide]: the “kon” value in data set [1] came to 7220 M⁻¹ s⁻¹. Also, the “disc. t1/2 (dissociation half-life ln(2)/koff)” value in data set [1] (ln(2)/koff) came out at 32 h. For the same compound, in data set [1], the Ki is 0.83 nM. Further, in data set [1], the dissociation rate constant (koff) was 6.11e-06 s⁻¹. In addition, the IC50 in data set [2] (setting [9]) amounted to 15 nM; in data set [3] (setting [10]) it was 22 nM; in data set [4] it was 19 nM; in data set [5] (setting [11]), 21 nM.

On to `CC(C)(C)NS(=O)(=O)c1cccc(C(=O)N2CC3(CCC4(CC4)CC3)c3cc(NS(=O)(=O)C4CC4)ccc32)c1` [Compound 160, N-(tert-butyl)-3-(5″- (cyclopropanesulfonamido)dispiro [cyclopropane-1,1′-cyclohexane-4′,3″- indoline]-1″- carbonyl)benzenesulfonamide], for which the “kon” value in data set [1] turned out to be 10600 M⁻¹ s⁻¹. Moreover, the “disc. t1/2 (dissociation half-life ln(2)/koff)” value in data set [1] (ln(2)/koff) stood at 33 h. The Ki in data set [1] was 0.54 nM. Moreover, the off-rate (koff) in data set [1] is 5.83e-06 s⁻¹. Also, the 50% inhibitory concentration (IC50) in data set [2] (setting [9]) was 5.4 nM; in data set [3] (setting [10]) it was 8 nM; in data set [4], 20 nM; in data set [5] (setting [11]), 7.5 nM.

Turning to `CS(=O)(=O)Nc1ccc2c(c1)C1(CCC3(CC3)CC1)CN2C(=O)c1cccc(S(=O)(=O)NC2CC(F)(F)C2)c1` [Compound 192, N-(3,3-difluorocyclobutyl)-3-(5″- (methylsulfonamido)dispiro[cyclopropane-1,1′-cyclohexane-4′,3″-indoline]-1″-carbonyl)benzenesulfonamide], the “kon” value in data set [1] turned out to be 14400 M⁻¹ s⁻¹. Moreover, the “disc. t1/2 (dissociation half-life ln(2)/koff)” value in data set [1] (ln(2)/koff) is reported as 21 h. Also, in data set [1], the Ki was found to be 0.64 nM. The off-rate (koff) in data set [1] was 9.17e-06 s⁻¹. Also, the IC50 is 500 nM in data set [2] (setting [9]), 410 nM in data set [3] (setting [10]), 10 nM in data set [4] and 510 nM in data set [5] (setting [11]).

In the case of `CS(=O)(=O)Nc1ccc2c(c1)C1(CCC3(CC3)CC1)CN2C(=O)c1cccc(S(=O)(=O)NC23CC(C2)C3)c1` [Compound 223, N-(bicyclo[1.1.1]pentan-1-yl)-3-(5″-(methylsulfonamido)dispiro[cyclopropane-1,1′-cyclohexane-4′,3″-indoline]-1″-carbonyl)benzenesulfonamide], in data set [1], the “kon” value was determined as 6390 M⁻¹ s⁻¹. Moreover, the “disc. t1/2 (dissociation half-life ln(2)/koff)” value in data set [1] (ln(2)/koff) is given as 7.9 h. In data set [1], the Ki came to 0.26 nM. Moreover, the koff in data set [1] was 2.44e-05 s⁻¹. The IC50 in data set [2] (setting [9]) stood at 15 nM; in data set [3] (setting [10]) it was 20 nM; in data set [4] it was 6.7 nM; in data set [5] (setting [11]), 21 nM.

In the case of `O=C(c1cccc(S(=O)(=O)C2CCCC2)c1)N1CC2(CCC3(CC3)CC2)c2cc(NS(=O)(=O)CCO)ccc21` [Compound 229, N-(1″-(3-(cyclopentylsulfonyl)benzoyl)dispiro [cyclopropane-1,1′-cyclohexane-4′,3″- indolin]-5″-yl)-2-hydroxyethane-1-sulfonamide], the “kon” value in data set [1] is 16900 M⁻¹ s⁻¹. In data set [1] (ln(2)/koff), the “disc. t1/2 (dissociation half-life ln(2)/koff)” value turned out to be 39 h. Also, in data set [1], the Ki came out at 0.29 nM. For the same compound, the off-rate constant (koff) in data set [1] is 5e-06 s⁻¹. Moreover, the IC50 was found to be 11 nM in data set [2] (setting [9]), 13 nM in data set [3] (setting [10]), 6.2 nM in data set [4] and 11 nM in data set [5] (setting [11]).

Regarding `CS(=O)(=O)Nc1ccc2c(c1)C1(CCC3(CC3)CC1)CN2C(=O)c1cccc(S(=O)(=O)N2CC(F)(F)C2)c1` [Compound 257, N-(1″-(3-((3,3-difluoroazetidin-1-yl)sulfonyl)benzoyl)dispiro[cyclopropane-1,1′-cyclohexane-4′,3″-indolin]-5″- yl)methanesulfonamide], in data set [1], the “kon” value was found to be 18300 M⁻¹ s⁻¹. The “disc. t1/2 (dissociation half-life ln(2)/koff)” value in data set [1] (ln(2)/koff) was determined as 10 h. In data set [1], the Ki stood at 0.96 nM. For the same compound, the koff in data set [1] is 1.86e-05 s⁻¹. Moreover, the concentration for half-maximal inhibition (IC50) in data set [2] (setting [9]) was 12 nM; in data set [3] (setting [10]), 21 nM; in data set [4], 8.3 nM; in data set [5] (setting [11]), 21 nM.

Turning to `COc1ccc(C(=O)N2CC3(CCC4(CC4)CC3)c3cc(NS(C)(=O)=O)ccc32)cc1S(=O)(=O)NC(C)(C)C` [Compound 297, N-(tert-butyl)-2-methoxy-5-(5″-(methylsulfonamido)dispiro[cyclopropane-1,1′-cyclohexane-4′,3″-indoline]-1″-carbonyl)benzenesulfonamide], the “kon” value in data set [1] turned out to be 10300 M⁻¹ s⁻¹. The “disc. t1/2 (dissociation half-life ln(2)/koff)” value in data set [1] (ln(2)/koff) was determined as 49 h. Moreover, the Ki in data set [1] turned out to be 0.38 nM. Besides, the dissociation rate constant (koff) in data set [1] was 3.89e-06 s⁻¹. Also, the 50% inhibitory concentration (IC50) worked out at 9.8 nM in data set [2] (setting [9]), 10 nM in data set [3] (setting [10]), 17 nM in data set [4] and 11 nM in data set [5] (setting [11]).

For the origin of these results see patent US12084420B2, “Indoline compounds for inhibiting KIF18A” (Volastra Therapeutics, Inc., priority 2021, dated 2024).
